Measurements: PubChem BioAssay AID1845196 (Molecular Pharmacology Branch, DTP, NCI, 2023)
Several values for one entry are separate records, joined by “and”; a condition that tells them apart may be missing. Equal entries are not always repeated.

Test system: 292921-168-R tumor spheroid viability
Assay: Anticancer human tumor 292921-168-R patient-derived pancreatic carcinoma cell line growth inhibition
Conditions: spheroids with HUVEC and MSC; for viability, T/C: stronger effect = lower value
Summary of the method: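 Single agents and combinations were tested on spheroids built from tumor cells plus HUVEC and hMSC, at half-log dilutions starting at or near clinical Cmax, else 10 microM; final DMSO 0.25% (v/v).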
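Note: spheroids exposed to compounds for 7 days.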

`COc1ccc([C@@H](O)c2cc(-c3ncnc4cc(N5CCOCC5)ccc34)c(F)cc2Cl)nn1` + COc1cc2c(cc1O)CCNC21CSC2c3c(OC(C)=O)c(C)c4c(c3C(COC1=O)N1C(O)C3Cc5cc(C)c(OC)c(O)c5C(C21)N3C)OCO4 was tested, and the IC50 (curve of first compound, second compound 30 pM) was 1440 nM, the IC50 (curve of first compound, second compound 94.9 pM) was 871 nM and the IC50 (curve of first compound, second compound 0.0003 µM) was under 31.6 nM. For the same molecule, the IC50 (curve of first compound, second compound 0.000949 µM) was under 31.6 nM, the IC50 (curve of first compound, second compound 0.003 µM) was under 31.6 nM and the viability, T/C (second compound 30 pM, first compound 0.0316 µM) was 100%. It also gave a viability, T/C (second compound 30 pM, first compound 0.1 µM) of 107%, a viability, T/C (second compound 30 pM, first compound 0.316 µM) of 95.6% and a viability, T/C (second compound 30 pM, first compound 1 µM) of 58.6%. For the same molecule, the viability, T/C (second compound 30 pM, first compound 3.16 µM) was 31.1%, the viability, T/C (second compound 30 pM, first compound 10 µM) was 19.5% and the viability, T/C (second compound 94.9 pM, first compound 0.0316 µM) was 105%. It also gave a viability, T/C (second compound 94.9 pM, first compound 0.1 µM) of 99.2%, a viability, T/C (second compound 94.9 pM, first compound 0.316 µM) of 78.7% and a viability, T/C (second compound 94.9 pM, first compound 1 µM) of 45.4%. The viability, T/C (second compound 94.9 pM, first compound 3.16 µM) was 27.4%, the viability, T/C (second compound 94.9 pM, first compound 10 µM) was 19% and the viability, T/C (second compound 0.0003 µM, first compound 0.0316 µM) was 40.7%. For the same molecule, the viability, T/C (second compound 0.0003 µM, first compound 0.1 µM) was 43.3%, the viability, T/C (second compound 0.0003 µM, first compound 0.316 µM) was 26.3% and the viability, T/C (second compound 0.0003 µM, first compound 1 µM) was 13.7%. The viability, T/C (second compound 0.0003 µM, first compound 3.16 µM) was 9.98%, the viability, T/C (second compound 0.0003 µM, first compound 10 µM) was 7.7% and the viability, T/C (second compound 0.000949 µM, first compound 0.0316 µM) was 2.51%. The viability, T/C (second compound 0.000949 µM, first compound 0.1 µM) was 2.48%, the viability, T/C (second compound 0.000949 µM, first compound 0.316 µM) was 0.8% and the viability, T/C (second compound 0.000949 µM, first compound 1 µM) was 0.09%. The viability, T/C (second compound 0.000949 µM, first compound 3.16 µM) was 0.1%, the viability, T/C (second compound 0.000949 µM, first compound 10 µM) was 0.26% and the viability, T/C (second compound 0.003 µM, first compound 0.0316 µM) was 0.14%. The viability, T/C (second compound 0.003 µM, first compound 0.1 µM) was 0.23%, the viability, T/C (second compound 0.003 µM, first compound 0.316 µM) was 0.49% and the viability, T/C (second compound 0.003 µM, first compound 1 µM) was 1.37%. The viability, T/C (second compound 0.003 µM, first compound 3.16 µM) was 1.46% and the viability, T/C (second compound 0.003 µM, first compound 10 µM) was 1.42%.

With `CC(C)n1c(=O)n(C)c2cnc3cc(F)c(-c4ccc(OCCCN5CCCCC5)nc4)cc3c21` + Cn1nnc2c(C(N)=O)ncn2c1=O the IC50 (curve of first compound, second compound 1 µM) was 4660 nM, the IC50 (curve of first compound, second compound 3.16 µM) was 5430 nM and the IC50 (curve of first compound, second compound 10 µM) was 5380 nM. It also gave an IC50 (curve of first compound, second compound 31.6 µM) of 4640 nM, an IC50 (curve of first compound, second compound 100 µM) of 4290 nM and a viability, T/C (second compound 1 µM, first compound 0.0316 µM) of 96.5%. The viability, T/C (second compound 1 µM, first compound 0.1 µM) was 94.2%, the viability, T/C (second compound 1 µM, first compound 0.316 µM) was 89.6% and the viability, T/C (second compound 1 µM, first compound 1 µM) was 79.6%. For the same molecule, the viability, T/C (second compound 1 µM, first compound 3.16 µM) was 63.3%, the viability, T/C (second compound 1 µM, first compound 10 µM) was 26% and the viability, T/C (second compound 3.16 µM, first compound 0.0316 µM) was 99.2%. For the same molecule, the viability, T/C (second compound 3.16 µM, first compound 0.1 µM) was 94.8%, the viability, T/C (second compound 3.16 µM, first compound 0.316 µM) was 85.6% and the viability, T/C (second compound 3.16 µM, first compound 1 µM) was 86.8%. It also gave a viability, T/C (second compound 3.16 µM, first compound 3.16 µM) of 73.8%, a viability, T/C (second compound 3.16 µM, first compound 10 µM) of 25.1% and a viability, T/C (second compound 10 µM, first compound 0.0316 µM) of 90.4%. The viability, T/C (second compound 10 µM, first compound 0.1 µM) was 96.2%, the viability, T/C (second compound 10 µM, first compound 0.316 µM) was 89.5% and the viability, T/C (second compound 10 µM, first compound 1 µM) was 84.2%. For the same molecule, the viability, T/C (second compound 10 µM, first compound 3.16 µM) was 69.8%, the viability, T/C (second compound 10 µM, first compound 10 µM) was 27.4% and the viability, T/C (second compound 31.6 µM, first compound 0.0316 µM) was 89.9%. For the same molecule, the viability, T/C (second compound 31.6 µM, first compound 0.1 µM) was 91.2%, the viability, T/C (second compound 31.6 µM, first compound 0.316 µM) was 83.6% and the viability, T/C (second compound 31.6 µM, first compound 1 µM) was 77.9%. The viability, T/C (second compound 31.6 µM, first compound 3.16 µM) was 62.8%, the viability, T/C (second compound 31.6 µM, first compound 10 µM) was 25.9% and the viability, T/C (second compound 100 µM, first compound 0.0316 µM) was 72.2%. It also gave a viability, T/C (second compound 100 µM, first compound 0.1 µM) of 74.1%, a viability, T/C (second compound 100 µM, first compound 0.316 µM) of 79.6% and a viability, T/C (second compound 100 µM, first compound 1 µM) of 77.2%. For the same molecule, the viability, T/C (second compound 100 µM, first compound 3.16 µM) was 57.9% and the viability, T/C (second compound 100 µM, first compound 10 µM) was 28.1%.

With `COc1ccc([C@@H](O)c2cc(-c3ncnc4cc(N5CCOCC5)ccc34)c(F)cc2Cl)nn1` the viability, T/C (compound 0.0316 µM) was 103% and 105% and 96.1%, the viability, T/C (compound 0.1 µM) was 99.4% and 97.3% and 101% and the viability, T/C (compound 0.316 µM) was 91.3% and 87.4% and 87.8%. For the same molecule, the viability, T/C (compound 1 µM) was 57.4% and 56.3% and 64.4%, the viability, T/C (compound 3.16 µM) was 37% and 34.3% and 35.8% and the viability, T/C (compound 10 µM) was 20.6% and 19% and 21%. The IC50 (curve of compound) was 1570 nM and 1450 nM and 1780 nM.
